From patent publication US8664252B2, “Phosphodiesterase type III (PDE III) inhibitors or CA2+-sensitizing agents for the treatment of hypertrophic cardiomyopathy” (Boehringer Ingelheim Vetmedica GmbH, priority 2008, dated 2014)

Tested on: Cats Suffering from HCM
Experiment: Treatment of a cat suffering from HCM with acute circulatory failure (clinical case)
Format: in vivo
Procedure: A 15 year old castrated male tomcat of mixed breed (mother Persian, father European short hair, bodyweight 6 kg) was brought to the veterinary clinic in March 2008. The animal was lethargic and unable to move. Examination of the cardiovascular system indicated acute circulatory failure, accompanied with tachycardia (>180 bpm). Echocardiographic investigation indicated a thickened left ventricular wall and septum, which are related to HCM.
Because of the desperate situation 1.25 mg pimobendan were applied orally with the expectation/fear that this measure would/could probably further deteriorate the status of the cat.
This treatment is still being continued.

Structure (SMILES) | control of acute circulatory failure (clinical situation) (15 year old tomcat with HCM, 6 kg, furosemide 1 mg/kg i.v., immediate administration) | clinical symptoms / recovery (same cat, after insufficient furosemide, 1.25 mg pimobendan orally, single application) | left ventricular filling and systolic function (ultrasound) (same cat, continued treatment 20 microgram/kg/day pimobendan orally)
NS(=O)(=O)c1cc(C(=O)O)c(NCc2ccco2)cc1Cl [furosemide] | did not result in a sufficient control of the situation |  | 
COc1ccc(-c2nc3cc(C4=NNC(=O)CC4C)ccc3[nH]2)cc1 (stereo not drawn) [pimobendan, 4,5-dihydro-6-[2-(4-methoxyphenyl)-1H-benzimidazol-5-yl]-5-methyl-3 (2H)-pyridazinone] |  | clinical symptoms improved and the cat recovered within a few hours | significant recovery of left ventricular filling and systolic function
